Like-named read-outs stand apart in the source and are kept apart here. Each block holds one molecule with its values, some of them ahead of it. Square brackets hold non-standard residues; d marks the D form. Peptide text beside a SMILES is read from it. * marks the point of attachment. 5FAM = O=C1OC2(c3ccc(O)cc3Oc3cc(O)ccc32)c2ccc(C(=O)*)cc21; Abu = CC[C@H](N)C(=O)O
How the values were obtained:
[1] = system: MDA-MB-231 human breast cancer cell line; assay: Cell growth inhibition, WST-8 assay, MDA-MB-231; format: cell-based; settings: for IC50: Homo sapiens, MDA-MB-231, 96 h; for cellular activity in MDA-MB-231 compared with SM-122: relative to SM-122
Method: (§1) The effect of the compounds of the present invention on the growth of various cancer cell lines was tested. Cells were seeded in 96-well flat bottom cell culture plates at a density of 3000 cells/well with a tested compound and incubated at 37° C. in an atmosphere of 95% air and 5% CO2 for 4 days. […] Dojindo Molecular Technologies, Inc., Gaithersburg, Md.). […] The absorbance of the samples was measured at 450 nm using a ULTRA Tecan Reader (Molecular Device). […] The ability of SM-406 to inhibit cell growth as a single agent was tested in the MDA-MB-231 breast cancer cell line, SK-OV-3 and OVCAR-4 ovarian cancer cell lines and SK-MeI-2 melanoma cancer cell line. Cells were treated for 4 days. Cell growth was determined using a WST-based assay.

[2] = system: SK-OV-3 ovarian cancer cell line; assay: Cell growth inhibition, WST-8 assay, SK-OV-3; format: cell-based; settings: for IC50: Homo sapiens, SK-OV-3, 96 h; for cellular activity in SK-OV-3 compared with SM-122: relative to SM-122
Method: as §1

[3] = system: breast cancer MDA-MB-231 cell line; assay: Induction of cell death, trypan blue exclusion, MDA-MB-231; format: cell-based
Method: (§2) The ability of YP-337 to induce cell death was tested in the breast cancer MDA-MB-231 and ovarian cancer SK-OV-3 cell lines (Table 4). Cells were treated with YP-337 for 48 hours and cell viability was determined using the trypan blue exclusion assay.

[4] = system: ovarian cancer SK-OV-3 cell line; assay: Induction of cell death, trypan blue exclusion, SK-OV-3; format: cell-based
Method: as §2

[5] = target: T1, cIAP1 BIR3 domain (Homo sapiens, UniProt Q13490); assay: FP competitive binding assay to cIAP1 BIR3; settings: FP tracer; read-out: affinity of tracer for cIAP1
T1 construct: cIAP1 BIR3 domain (residues 253-363); His-tag

[6] = target: T2, cIAP2 BIR3 domain (Homo sapiens, UniProt Q13489); assay: FP competitive binding assay to cIAP2 BIR3; settings: FP tracer; read-out: affinity of tracer for cIAP2
T2 construct: cIAP2 BIR3 domain (residues 238-349); His-tag

[7] = target: T3, ML-IAP BIR3 domain (Homo sapiens, UniProt Q96CA5); assay: FP competitive binding assay to ML-IAP BIR3; settings: FP tracer; read-out: affinity of tracer for ML-IAP
T3 construct: ML-IAP BIR3 domain (residues 63-179), fused to a His-tag; His-tag
T3 sequence (Q96CA5 63-179): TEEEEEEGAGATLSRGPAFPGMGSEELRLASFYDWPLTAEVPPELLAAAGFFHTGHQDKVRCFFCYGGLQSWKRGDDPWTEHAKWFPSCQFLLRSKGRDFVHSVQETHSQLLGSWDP
Method: In order to test the binding ability of conformationally constrained Smac mimetics to other IAP proteins (ML-IAP, cIAP1, and cIAP2) binding assay conditions were developed and optimized. The recombinant cIAP1 BIR3 domain (residues 253-363), cIAP2 BIR3 domain (residues 238-349), and ML-IAP BIR3 domain (residues 63-179), fused to a His-tag, were used in the binding assays. Competitive binding assays for other IAP proteins were performed similarly as that described for XIAP BIR3. […] The following protein concentration and tracer were used in the competitive assay: 10 nM cIAP1 and 2 nM SM5F, 25 nM cIAP2 and 2 nM SM5F, 300 nM ML-IAP and 5 nM SM5F
The competitive binding curves of SM-406 and SM-428 to BIR^3 domains of four members of IAP proteins were determined using a fluorescence-polarization-based binding assay. The IAP proteins tested include: (A) XIAP; (B) cIAP1; (C) cIAP2; (D) ML-IAP.

[8] = target: T4, XIAP BIR3 (Homo sapiens, UniProt P98170); assay: Fluorescence polarization (FP) based competitive binding assay to XIAP BIR3; set-up: human XIAP (residues 241-356) fused to His-tag; His-tag; settings: for IC50: FP binding, XIAP BIR3 30 nM, SM5F 5 nM
Target sequence in this assay (P98170 241-356): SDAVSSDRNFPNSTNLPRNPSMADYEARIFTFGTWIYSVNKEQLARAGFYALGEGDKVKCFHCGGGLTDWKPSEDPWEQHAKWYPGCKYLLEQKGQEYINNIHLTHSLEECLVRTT

[9] = target: T4, XIAP BIR3; settings: background statement; cited from earlier work
Target sequence in this assay (P98170 241-356 limits assumed): as the sequence (P98170 241-356) above

[10] = 4 days, WST-8, read-out: MDA-MB-231 IC50
[11] = 4 days, WST-8, read-out: SK-OV-3 IC50

T1 sequence (Q13490 253-363): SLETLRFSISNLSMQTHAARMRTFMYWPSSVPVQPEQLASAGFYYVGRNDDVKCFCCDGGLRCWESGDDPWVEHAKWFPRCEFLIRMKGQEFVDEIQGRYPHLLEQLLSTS
T2 sequence (Q13489 238-349): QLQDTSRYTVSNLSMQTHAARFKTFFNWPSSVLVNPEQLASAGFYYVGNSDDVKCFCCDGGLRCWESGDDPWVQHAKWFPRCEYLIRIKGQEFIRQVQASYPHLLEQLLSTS

Molecule: CN[C@@H](C)C(=O)N[C@H]1CN(C(=O)Cc2ccccc2)CC[C@H]2CC[C@@H](C(=O)NC(c3ccccc3)c3ccccc3)N2C1=O [SM-337]
- IC50 ([1]; read-out: MDA-MB-231 IC50 (μM)): < 1 µM
- cellular activity in MDA-MB-231 compared with SM-122 [1]: equal to or better than that of SM-122
- IC50 ([2]; read-out: SK-OV-3 IC50 (μM)): < 1 µM
- cellular activity in SK-OV-3 compared with SM-122 [2]: equal to or better than that of SM-122
- Approximate % of dead cells after 48 h, MDA-MB-231 ([3]; 0.1 nM): ~10%
- Approximate % of dead cells after 48 h, MDA-MB-231 ([3]; 1 nM): ~35%
- Approximate % of dead cells after 48 h, MDA-MB-231 ([3]; 10 nM): ~60%
- Approximate % of dead cells after 48 h, MDA-MB-231 ([3]; 100 nM): ~75%
- Approximate % of dead cells after 48 h, SK-OV-3 ([4]; 0.1 nM): ~20%
- Approximate % of dead cells after 48 h, SK-OV-3 ([4]; 1 nM): ~40%
- Approximate % of dead cells after 48 h, SK-OV-3 ([4]; 10 nM): ~65%
- Approximate % of dead cells after 48 h, SK-OV-3 ([4]; 100 nM): ~75%

Molecule: CC[C@H](N)C(=O)N[C@@H](CCCNC(=N)N)C(=O)N1CCC[C@H]1C(=O)N[C@@H](Cc1ccccc1)C(=O)N[C@@H](CCCCNC(=O)c1ccc2c(c1)C(=O)OC21c2ccc(O)cc2Oc2cc(O)ccc21)C(N)=O [SM5F, AbuRPF-K-(5-Fam)-NH2] (H-[Abu]RPFK(5FAM)-NH2; N-terminus assumed)
- Kd [5]: 4.1 nM
- Kd [6]: 6.6 nM
- Kd [7]: 160 nM

Molecule: CN[C@@H](C)C(=O)N[C@H]1CN(C)CC[C@H]2CC[C@@H](C(=O)NC(c3ccccc3)c3ccccc3)N2C1=O [YP-245P3]
- IC50 ([1]; read-out: MDA-MB-231 IC50 (μM)): > 1 µM
- cellular activity in MDA-MB-231 compared with SM-122 [1]: less than that of SM-122
- cellular activity in SK-OV-3 compared with SM-122 [2]: less than that of SM-122
- binding affinity to XIAP BIR3 compared with SM-122 ([8]; relative to carbocyclic analog SM-122): less than that of SM-122

B1: mature Smac protein: mature Smac/DIABLO polypeptide, endogenous inhibitor of XIAP (protein, UniProt Q9NR28 22-239, looked up)
Diablo IAP-binding …: LCVPVVANFKKRCFSELIRPWHKTVTIGFGVTLCAVPIAQKSEPHSLSSEALMRRAVSLVTDSTSTFLSQTTYALIEAITEYTKAVYTLTSLYRQYTSLLGKMNSEEEDEVWQVIIGARAEMTSKHQEYLKLETTWMTAVGLSEMAAEAAYQTGADQASITARNHIQLVKLQVEEVHQLSRKAETKLAEAQIEELRQKTQEEGEERAESEQEAYLRED
- Kd [9]: 420 nM

The next lines start with the values.

- IC50 [1, 10]: < 1 µM
- IC50 [2, 11]: < 1 µM
- IC50 [8]: < 1000 nM
Molecule: CN[C@@H](C)C(=O)N[C@H]1CN(C(=O)CC(C)(C)C)CC[C@H]2CC[C@@H](C(=O)NC(c3ccccc3)c3ccccc3)N2C1=O [SM-415]

- IC50 [1, 10]: < 1 µM
- IC50 [2, 11]: < 1 µM
- IC50 [8]: < 1000 nM
Molecule: CN[C@@H](C)C(=O)N[C@H]1CN(C(=O)CC2CCCC2)CC[C@H]2CC[C@@H](C(=O)NC(c3ccccc3)c3ccccc3)N2C1=O [SM-405]

— US8278293B2, “Diazo bicyclic Smac mimetics and the uses thereof” (The Regents of the University of Michigan, priority 2007, dated 2012)
